Results taken from paper PMC2233835 (The Journal of General Physiology, 2001).

Legend:
[1] = molecular target: T1, X-α homomeric channels (Bos taurus, UniProt Q00194, A200G/A344S/A378F/A555M/A614G/C169F/D157S/D193E/D538A/D604Q/DEL101-144/DEL91-95/E147F/E148K/E189Q/E196F/E230D/E231L/F201L/F214C/F374V/G160D/G591K/I156V/I181L/I182V/I235R/I530V/I609E/I611V/INS98[…]/K146T/K150R/K151W/K237N/K239I/K346C/K506R/K521Q/K551Q/K564R/K590Q/K596R/K598R/L195F/L199V/L210I/L351F/L583V/M175L/M213T/M592V/M602R/N161D/N165Y/N610S/N613A/P158Q/P173A/Q494R/Q599E/Q97T/R232A/R345F/R369K/R512K/S192D/S205C/S240R/S350C/S371E/S537T/S540G/T162I/T171A/T179I/T217L/T364M/T584A/V153G/V154F/V174S/V208I/V215I/V534A/V535L/Y194N/Y197L/Y541C); assay: Macroscopic current dose–response in inside-out patches from Xenopus oocytes; format: cell-based, chimera of bovine CNG1 and catfish CNG2
T1 sequence (Q00194 with tags, fused parts or gaps DEL91-95/Q97T/INS98[…]/DEL101-144/K146T/E147F/E148K/K150R/K151W/V153G/V154F/I156V/D157S/P158Q/G160D/N161D/T162I/N165Y/C169F/T171A/P173A/V174S/M175L/T179I/I181L/I182V/E189Q/S192D/D193E/Y194N/L195F/E196F/Y197L/L199V/A200G/F201L/S205C/V208I/L210I/M213T/F214C/V215I/T217L/E230D/E231L/R232A/I235R/K237N/K239I/S240R/A344S/R345F/K346C/S350C/L351F/T364M/R369K/S371E/F374V/A378F/Q494R/K506R/R512K/K521Q/I530V/V534A/V535L/S537T/D538A/S540G/Y541C/K551Q/A555M/K564R/L583V/T584A/K590Q/G591K/M592V/K596R/K598R/Q599E/M602R/D604Q/I609E/N610S/I611V/N613A/A614G): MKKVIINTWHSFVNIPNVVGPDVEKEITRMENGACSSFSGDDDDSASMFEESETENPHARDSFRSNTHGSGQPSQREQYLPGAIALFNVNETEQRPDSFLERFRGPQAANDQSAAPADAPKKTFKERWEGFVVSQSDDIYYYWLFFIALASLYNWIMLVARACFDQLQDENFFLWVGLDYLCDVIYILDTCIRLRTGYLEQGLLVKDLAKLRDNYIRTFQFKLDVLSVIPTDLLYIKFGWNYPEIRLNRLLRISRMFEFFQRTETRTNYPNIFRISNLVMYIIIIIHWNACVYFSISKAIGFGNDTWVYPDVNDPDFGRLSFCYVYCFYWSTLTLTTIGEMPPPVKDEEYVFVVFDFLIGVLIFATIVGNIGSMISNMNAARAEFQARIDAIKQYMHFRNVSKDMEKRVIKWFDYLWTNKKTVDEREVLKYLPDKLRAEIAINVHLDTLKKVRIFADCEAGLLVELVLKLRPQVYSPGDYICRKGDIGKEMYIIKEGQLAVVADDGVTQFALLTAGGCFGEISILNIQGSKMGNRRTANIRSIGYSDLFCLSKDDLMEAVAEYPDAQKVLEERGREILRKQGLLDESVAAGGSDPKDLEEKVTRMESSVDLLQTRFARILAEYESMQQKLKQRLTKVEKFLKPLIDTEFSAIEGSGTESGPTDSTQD

[2] = test system: ROON-S2; settings: mean ± SD, ref Tibbs et al. 1997, Tibbs et al. 1998; cited from earlier work
[3] = molecular target: T2, X-β homomeric channels (Bos taurus, UniProt Q00194, A200G/A344S/A378F/A555S/A582V/A612E/C169F/D157S/D193E/D502E/D538A/D577E/D588Q/D604M/DEL101-144/DEL91-95/E147F/E148K/E189Q/E196F/E230D/E231L/F201L/F214C/F374V/F533Y/G160D/G591A/G605N/I156V/I181L/I182V/I235R/I504V/I530V/I566L/I609V/I611A/INS98[…]/K146T/K150R/K151W/K237N/K239I/K346C/K506R/K518R/K521Q/K554M/K590Q/K598R/L195F/L199V/L210I/L351F/L548I/L593M/L606K/M175L/M213T/M580R/M592V/M602L/N161D/N165Y/N613A/P158Q/P173A/Q599E/Q97T/R232A/R345F/R369K/S192D/S205C/S240R/S350C/S371E/S537G/S540L/S553N/T162I/T171A/T179I/T217L/T364M/T584S/V153G/V154F/V174S/V208I/V215I/V487E/V497T/V534A/Y194N/Y197L); assay: Macroscopic current dose–response in inside-out patches from Xenopus oocytes; format: cell-based, chimera of bovine CNG1, catfish CNG2 and rat CNG5
T2 sequence (Q00194 with tags, fused parts or gaps DEL91-95/Q97T/INS98[…]/DEL101-144/K146T/E147F/E148K/K150R/K151W/V153G/V154F/I156V/D157S/P158Q/G160D/N161D/T162I/N165Y/C169F/T171A/P173A/V174S/M175L/T179I/I181L/I182V/E189Q/S192D/D193E/Y194N/L195F/E196F/Y197L/L199V/A200G/F201L/S205C/V208I/L210I/M213T/F214C/V215I/T217L/E230D/E231L/R232A/I235R/K237N/K239I/S240R/A344S/R345F/K346C/S350C/L351F/T364M/R369K/S371E/F374V/A378F/V487E/V497T/D502E/I504V/K506R/K518R/K521Q/I530V/F533Y/V534A/S537G/D538A/S540L/L548I/S553N/K554M/A555S/I566L/D577E/M580R/A582V/T584S/D588Q/K590Q/G591A/M592V/L593M/K598R/Q599E/M602L/D604M/G605N/L606K/I609V/I611A/A612E/N613A): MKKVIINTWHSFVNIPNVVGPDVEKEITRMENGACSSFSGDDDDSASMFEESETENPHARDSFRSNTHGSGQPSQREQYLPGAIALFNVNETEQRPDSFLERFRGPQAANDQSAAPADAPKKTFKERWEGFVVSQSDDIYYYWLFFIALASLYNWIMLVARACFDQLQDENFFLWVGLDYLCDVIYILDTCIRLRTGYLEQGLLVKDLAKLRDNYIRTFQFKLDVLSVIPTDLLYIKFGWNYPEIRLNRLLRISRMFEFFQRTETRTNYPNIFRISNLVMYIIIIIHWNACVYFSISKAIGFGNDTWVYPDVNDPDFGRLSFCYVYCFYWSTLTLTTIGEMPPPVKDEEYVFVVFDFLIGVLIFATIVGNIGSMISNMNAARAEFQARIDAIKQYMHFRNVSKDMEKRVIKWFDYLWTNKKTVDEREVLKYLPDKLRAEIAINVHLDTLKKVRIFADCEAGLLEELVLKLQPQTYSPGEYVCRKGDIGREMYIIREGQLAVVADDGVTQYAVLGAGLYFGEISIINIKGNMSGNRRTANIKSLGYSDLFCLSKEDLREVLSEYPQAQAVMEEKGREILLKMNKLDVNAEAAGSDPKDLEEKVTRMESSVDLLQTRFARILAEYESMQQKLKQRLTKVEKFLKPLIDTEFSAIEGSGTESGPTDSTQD

Nc1nc2c(ncn2[C@@H]2O[C@@H]3COP(=O)([O-])O[C@H]3[C@H]2O)c(=O)[nH]1.[Na+] [cGMP]
agonist concentration at maximum of steady-state Popen dose–response curve [1]: ~3 mM | Desensitization ([1]; agonist up to 30 mM): Yes | agonist concentration at which macroscopic current decays (desensitization) ([1]; steady-state level lower than in 3 mM cGMP): ≥ 10 mM | Hill coefficient h ([1]; −100 mV, Hill fit of composite dataset, cGMP: only data ≤3 mM): 1.210 ± 0.046 | Hill coefficient h [2]: 1.89 ± 0.38 (10) | Desensitization ([3]; agonist up to 30 mM): no evidence for this desensitization and No | agonist character ([3]; macroscopic currents): full agonists
